Experiments:
cantharidin mouse ear = assay: Mouse Cantharidin Screen (topical anti-inflammatory activity, mouse ear); format: in vivo; settings: Mouse Cantharidin Data (24 h)
Procedure: Compounds were tested for topical anti-inflammatory activity in a cantharidin mouse ear screen, modified from Swingle et al [Swingle, K. F., Reiter, M. J. and Schwartzmiller, D. H., Arch. Int. Pharmacodyn., (1981), 254, 168-176].
25 μg cantharidin (in 10 μl THF/MeOH) was applied to both ears. Compound, in the same solvent, was applied at the same time, to the left ear only. Ears were weighed 24 h after cantharidin application. Percentage inhibition of the acute inflammatory swelling refers to the increase in weight of left ears (cantharidin plus compound) compared with solvent-treated negative controls, as a proportion of the increase in weight of right ears (cantharidin alone) over similar controls.

[1] = system: mouse sensitised to oxazolone; assay: Mouse Oxazolone Screen (topical anti-inflammatory activity); format: in vivo; settings: ear, compound 1 h before oxazolone challenge, ear weights 24 h later, r^2 =0.96
Procedure: Compounds were tested for topical anti-inflammatory activity in a screen using the mouse sensitised to oxazolone, by a method modified from that of Dietrich and Hess [Dietrich, F. M., and Hess, R., Int. Arch. Allergy, (1970), 38, 246-259].
Mice were sensitised with oxazolone (2 mg in 20 μl ethanol) on a shaved area of the abdomen. Five days later, the animals received 10 μl THF/MeOH (1:1 v/v) on the right ear, and the test compound in the same solvent on the left ear. One hour later, the animals were challenged with 100 μg oxazolone in 10 μl acetone on each ear. Ear weights were measured 24 h later. Percentage inhibition of the inflammatory swelling refers to the increase in weight of left ears (oxazolone plus compound) compared with solvent-treated negative controls, as a proportion of the increase in weight of right ears (oxazolone alone) over similar controls.

5-Lipoxygenase = assay: RBL-1 5-Lipoxygenase Screen; format: biochemical; settings: 20 μM; 10,000 g supernatant from RBL-1 cells, 29° C.
Procedure: 5-Lipoxygenase enzyme was prepared as a 10,000 g supernatant from RBL-1 cells by the method of Jakschik [Jakschik, B. A., Sun, F. F., Lee, L. M. and Steinhoff, M. M., 1980, Biochem. Biophys. Res. Comm. 95, 103]. The 10,000 g supernatant was diluted with homogenization buffer to the equivalent of 1.5-2.5×10^7 cells ml^-1 and made 2 mM with respect to CaCl2. Aliquots of 0.5 ml were then dispensed into tubes, and incubated at 29° C. with 5 γl ethanol or compound in ethanol at the desired concentration for 2 min. Then [1-^14 C] arachidonic acid was added in buffer to give a final concentration of 6.3 μm and 0.2 μCi per incubation, and the reaction continued at 29° C. for 2 min. The reaction was terminated by adding 1 ml of acetone and cooling on ice, 0.5 ml of ice-cold saline and 10 μl of 2N formic acid were added, and the mixture was extracted with 2×2 ml of chloroform. The extract was stored under N2 at -20° C. until analysis by chromatography. Activity was measured as the percentage of total radioactivity found in 5-HETE and 5,12-diHETE, and inhibition calculated as the decrease in formation of the sum of these two species in compound-treated incubates relative to control incubates.

mice = settings: in mice; J. Heterocycl. Chem. 1971, 8(6), 1035-7; cited from earlier work

Cc1cc(Nc2ccc(C#N)cc2)c2[nH]ncc2n1 [Example 1, 7-(4-Cyanoanilino)-5-methyl-1H-pyrazolo[4,3-b]pyridine]
% Inhibition (cantharidin mouse ear; 300 μg/ear): 29%

Cc1cc(Nc2ccc(O)cc2)c2[nH]ncc2n1 [Example 4, 7-(4-Hydroxyanilino)-5-methyl-1H-pyrazolo[4,3-b]pyridine]
ED50 [1]: 240 μg/ear | inhibition (decrease in formation of 5-HETE and 5,12-diHETE) (5-Lipoxygenase): 66% | % Inhibition (cantharidin mouse ear; 200 μg/ear): 71%

Cc1cc(Nc2cccc(O)c2)c2[nH]ncc2n1 [Example 5, 7-(3-Hydroxyanilino)-5-methyl-1H-pyrazolo[4.3-b]pyridine]
% Inhibition (cantharidin mouse ear; 500 μg/ear): 49%

Cc1cc(Nc2cccc(O)c2)c2c(cnn2C)n1 [Example 8, 1,5-Dimethyl-7-(3-hydroxyanilino)-1H-pyrazolo[4,3-b]pyridine]
% Inhibition (cantharidin mouse ear; 278 μg/ear): 31%

CC(=O)N(C(C)=O)c1cc(C)nc2c(C)n[nH]c12 [compound wherein R is NAc2]
CNS antidepressant activity (mice): CNS antidepressant activity
